The results in this text go back to ChEMBL document CHEMBL4219234, “4-Substituted carbamazepine derivatives: Conformational analysis and sodium channel-blocking properties” (Bioorg Med Chem, 2018).

Data set [1] has as its target Sodium channel protein type 2 subunit alpha (Homo sapiens) (UniProt Q99250). The data set can be described thus: Inhibition of human Nav1.2 expressed in CHOK1 cells assessed as reduction in peak inward current at 30th pulse using holding potential of -50 mV by patch clamp assay. The class given is cell-based.
Data set [2] is described as follows: Solubility of the compound in DMSO at > 14.3 uM. The format is physicochemical.
The nature of data set [3]: Solubility of the compound in DMSO at > 30 uM. The format is physicochemical.

Molecules are shown by their SMILES. Activity calls are given as the source filed them. The calls are words filed in the database; no cut-off is given here.

Sequence of Sodium channel protein type 2 subunit alpha (Homo sapiens) (Q99250 whole entry, looked up): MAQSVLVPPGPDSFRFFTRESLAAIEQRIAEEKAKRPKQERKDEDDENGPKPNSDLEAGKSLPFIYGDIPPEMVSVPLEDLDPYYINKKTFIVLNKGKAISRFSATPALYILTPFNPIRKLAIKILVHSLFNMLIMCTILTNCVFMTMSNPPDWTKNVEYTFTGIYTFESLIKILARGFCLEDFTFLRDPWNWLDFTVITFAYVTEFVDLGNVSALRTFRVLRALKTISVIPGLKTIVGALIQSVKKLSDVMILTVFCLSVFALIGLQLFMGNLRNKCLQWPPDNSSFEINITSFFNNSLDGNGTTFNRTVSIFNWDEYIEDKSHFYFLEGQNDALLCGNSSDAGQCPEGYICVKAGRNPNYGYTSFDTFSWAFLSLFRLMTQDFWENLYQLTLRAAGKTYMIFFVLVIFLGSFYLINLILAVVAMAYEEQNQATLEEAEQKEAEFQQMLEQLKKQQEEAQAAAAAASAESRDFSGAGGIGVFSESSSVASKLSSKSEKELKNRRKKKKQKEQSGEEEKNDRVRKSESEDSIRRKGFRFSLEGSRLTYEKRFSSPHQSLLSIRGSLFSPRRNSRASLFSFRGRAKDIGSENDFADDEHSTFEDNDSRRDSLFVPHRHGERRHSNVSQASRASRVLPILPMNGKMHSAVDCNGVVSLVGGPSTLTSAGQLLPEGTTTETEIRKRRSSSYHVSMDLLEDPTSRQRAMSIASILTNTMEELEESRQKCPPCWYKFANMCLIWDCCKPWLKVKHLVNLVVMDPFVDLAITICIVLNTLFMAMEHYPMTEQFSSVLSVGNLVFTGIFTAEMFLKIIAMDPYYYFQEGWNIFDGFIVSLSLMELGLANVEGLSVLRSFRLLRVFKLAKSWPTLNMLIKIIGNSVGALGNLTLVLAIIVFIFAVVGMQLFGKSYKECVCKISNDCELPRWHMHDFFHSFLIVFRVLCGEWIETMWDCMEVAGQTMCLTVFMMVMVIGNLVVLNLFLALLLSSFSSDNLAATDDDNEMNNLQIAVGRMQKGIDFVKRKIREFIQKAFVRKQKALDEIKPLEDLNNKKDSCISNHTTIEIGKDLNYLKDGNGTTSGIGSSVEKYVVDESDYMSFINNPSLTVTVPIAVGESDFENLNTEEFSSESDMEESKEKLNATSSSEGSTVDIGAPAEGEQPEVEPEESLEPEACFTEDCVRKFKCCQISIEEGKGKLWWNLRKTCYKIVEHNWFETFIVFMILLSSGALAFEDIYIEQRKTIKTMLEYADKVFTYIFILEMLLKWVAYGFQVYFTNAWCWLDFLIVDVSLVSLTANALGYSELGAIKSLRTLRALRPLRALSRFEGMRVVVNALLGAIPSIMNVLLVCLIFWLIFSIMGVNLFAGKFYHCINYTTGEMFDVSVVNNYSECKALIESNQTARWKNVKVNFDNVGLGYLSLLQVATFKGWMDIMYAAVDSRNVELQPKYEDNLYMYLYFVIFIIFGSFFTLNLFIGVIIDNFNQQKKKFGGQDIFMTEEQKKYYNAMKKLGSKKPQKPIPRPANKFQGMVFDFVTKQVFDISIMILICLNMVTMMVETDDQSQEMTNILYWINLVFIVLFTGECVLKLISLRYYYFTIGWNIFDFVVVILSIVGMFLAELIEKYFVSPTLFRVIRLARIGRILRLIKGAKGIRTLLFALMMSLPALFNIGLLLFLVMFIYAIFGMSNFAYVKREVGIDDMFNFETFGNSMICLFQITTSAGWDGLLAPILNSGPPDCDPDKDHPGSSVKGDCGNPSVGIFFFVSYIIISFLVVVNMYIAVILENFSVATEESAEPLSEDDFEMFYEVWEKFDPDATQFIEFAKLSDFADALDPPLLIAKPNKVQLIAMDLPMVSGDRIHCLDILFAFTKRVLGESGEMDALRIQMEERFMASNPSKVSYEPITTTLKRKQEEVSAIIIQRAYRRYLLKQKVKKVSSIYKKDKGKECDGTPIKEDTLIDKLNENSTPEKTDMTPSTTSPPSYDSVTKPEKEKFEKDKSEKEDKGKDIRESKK

Consider `NC(=O)N1c2ccccc2C=Cc2cccc(Cl)c21`, for which, in data set [1], the inhibition result is “Active”. For the same compound, the solubility entry in data set [2] is given as “Insoluble”.
On to `Cc1cccc2c1N(C(N)=O)c1ccccc1C=C2`, for which the inhibition result in data set [1] was “Active”. Besides, the solubility result in data set [3] is recorded as “Insoluble”.
For `NC(=O)N1c2ccccc2C=Cc2ccccc21`, the inhibition result in data set [1] was “Active”.
